Source: patent publication US9670201B2, “Methyl- and trifluoromethyl-substituted pyrrolopyridine modulators of RORC2 and methods of use thereof” (Pfizer Inc., priority 2014, dated 2017)

These compounds were tested against RORC2 ligand binding domain (6-His-RORC2 LBD) (Homo sapiens (Human), UniProt P51449) (assay: Co-activator recruitment by TR-FRET). Conditions: 6-His-RORC2 LBD / SRC1-2 coactivator peptide, Table 1.
Type: biochemical

Chain of RORC2 ligand binding domain (6-His-RORC2 LBD) (P51449 269-508): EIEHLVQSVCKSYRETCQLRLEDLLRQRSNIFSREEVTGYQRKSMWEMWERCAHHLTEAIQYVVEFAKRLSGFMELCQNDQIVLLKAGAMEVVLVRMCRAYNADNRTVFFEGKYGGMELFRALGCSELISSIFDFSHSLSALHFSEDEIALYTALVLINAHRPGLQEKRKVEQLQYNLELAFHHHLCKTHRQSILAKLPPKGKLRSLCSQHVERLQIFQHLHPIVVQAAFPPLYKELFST

IC50 [nM]	SMILES
5.8	CC(C(=O)N1CCC(c2cn(C)c3ncc(NC(=O)c4cccc(C#N)c4)c(C(F)(F)F)c23)CC1)C1CC1 (racemic) [Example 25, Rac-3-cyano-N-(3-(1-(2-cyclopropylpropanoyl)piperidin-4-yl)-1-methyl-4-(trifluoromethyl)-1H-pyrrolo[2,3-b]pyridin-5-yl)benzamide]
18.6	Cc1c(NC(=O)c2cccc(C#N)c2)cnc2c1c([C@H]1C[C@H](C)N(C(=O)C3CCCC3)C[C@H]1C)cn2C (relative stereo) [Example 97, rel-3-cyano-N-(3-((2S,4S,5S)-1-(cyclopentanecarbonyl)-2,5-dimethylpiperidin-4-yl)-1,4-dimethyl-1H-pyrrolo[2,3-b]pyridin-5-yl)benzamide]
7.1	Cn1cc(C2CCN(C(=O)[C@H]3CCCS3)CC2)c2c(C(F)(F)F)c(NC(=O)c3cccc(C#N)c3)cnc21 (single isomer, unassigned) [Example 28]
0.9	Cn1cc(C2CCN(C(=O)[C@@H]3CCCS3)CC2)c2c(C(F)(F)F)c(NC(=O)c3cccc(C#N)c3)cnc21 (single isomer, unassigned) [Example 29]
16.4	Cc1c(NC(=O)c2cccc(C#N)c2)cnc2c1c(C1CCN(C(=O)[C@H]3CCC[C@@H]3C)CC1)cn2C (single isomer, unassigned) [Example 46]
10.1	Cc1c(NC(=O)c2cccc(C#N)c2)cnc2c1c(C1CCN(C(=O)[C@@H]3CCC[C@H]3C)CC1)cn2C (single isomer, unassigned) [Example 47]
6.2	Cc1c(NC(=O)c2cccc(C#N)c2)cnc2c1c(C1CCN(C(=O)[C@@H]3CCC[C@H]3C(C)C)CC1)cn2C (single isomer, unassigned) [Example 49]
3.2	Cn1cc(C2CCN(C(=O)C3CCCC3)CC2)c2c(C(F)(F)F)c(NC(=O)c3ccc(F)c(C#N)c3)cnc21 [Example 3, 3-cyano-N-(3-(1-(cyclopentanecarbonyl)piperidin-4-yl)-1-methyl-4-(trifluoromethyl)-1H-pyrrolo[2,3-b]pyridin-5-yl)-4-fluorobenzamide]
5.4	CC(C)C(=O)N1CCC(c2cn(C)c3ncc(NC(=O)c4ccc(F)c(C#N)c4)c(C(F)(F)F)c23)CC1 [Example 9, 3-cyano-4-fluoro-N-(3-(1-isobutyrylpiperidin-4-yl)-1-methyl-4-(trifluoromethyl)-1H-pyrrolo[2,3-b]pyridin-5-yl)benzamide]
3.5	COc1ccc(C(=O)Nc2cnc3c(c(C4CCN(C(=O)C(C)C)CC4)cn3C)c2C(F)(F)F)cc1Cl [Example 10, 3-chloro-N-(3-(1-isobutyrylpiperidin-4-yl)-1-methyl-4-(trifluoromethyl)-1H-pyrrolo[2,3-b]pyridin-5-yl)-4-methoxybenzamide]
1.5	CC(C)C(=O)N1CCC(c2cn(C)c3ncc(NC(=O)c4ccc(Cl)c(C#N)c4)c(C(F)(F)F)c23)CC1 [Example 11, 4-chloro-3-cyano-N-(3-(1-isobutyrylpiperidin-4-yl)-1-methyl-4-(trifluoromethyl)-1H-pyrrolo[2,3-b]pyridin-5-yl)benzamide]
11.8	CC(C)C(=O)N1CCC(c2cn(C)c3ncc(NC(=O)c4ccc(F)c(Cl)c4)c(C(F)(F)F)c23)CC1 [Example 12, 3-chloro-4-fluoro-N-(3-(1-isobutyrylpiperidin-4-yl)-1-methyl-4-(trifluoromethyl)-1H-pyrrolo[2,3-b]pyridin-5-yl)benzamide]
5	COc1cc(Cl)cc(C(=O)Nc2cnc3c(c(C4CCN(C(=O)C(C)C)CC4)cn3C)c2C(F)(F)F)c1 [Example 13, 3-chloro-N-(3-(1-isobutyrylpiperidin-4-yl)-1-methyl-4-(trifluoromethyl)-1H-pyrrolo[2,3-b]pyridin-5-yl)-5-methoxybenzamide]
10.2	Cn1cc(C2CCN(C(=O)[C@H]3C[C@H]4CCCC[C@H]4C3)CC2)c2c(C(F)(F)F)c(NC(=O)c3cccc(C#N)c3)cnc21 [Example 16, 3-cyano-N-(1-methyl-3-(1-((2r,3aR,7aS)-octahydro-1H-indene-2-carbonyl)piperidin-4-yl)-4-(trifluoromethyl)-1H-pyrrolo[2,3-b]pyridin-5-yl)benzamide]
5.2	Cn1cc(C2CCN(C(=O)CC3CCCCC3)CC2)c2c(C(F)(F)F)c(NC(=O)c3cccc(C#N)c3)cnc21 [Example 20, 3-cyano-N-(3-(1-(2-cyclohexylacetyl)piperidin-4-yl)-1-methyl-4-(trifluoromethyl)-1H-pyrrolo[2,3-b]pyridin-5-yl)benzamide]
5.8	Cn1cc(C2CCN(C(=O)CC3CC3)CC2)c2c(C(F)(F)F)c(NC(=O)c3cccc(C#N)c3)cnc21 [Example 24, 3-cyano-N-(3-(1-(2-cyclopropylacetyl)piperidin-4-yl)-1-methyl-4-(trifluoromethyl)-1H-pyrrolo[2,3-b]pyridin-5-yl)benzamide]
5.7	Cc1c(NC(=O)c2cccc(C#N)c2)cnc2c1c(C1CCN(C(=O)c3cccc4c3CCC4)CC1)cn2C [Example 34, 3-cyano-N-(3-(1-(2,3-dihydro-1H-indene-4-carbonyl)piperidin-4-yl)-1,4-dimethyl-1H-pyrrolo[2,3-b]pyridin-5-yl)benzamide]
11.6	Cc1c(NC(=O)c2cccc(C#N)c2)cnc2c1c(C1CCN(C(=O)[C@H](C)C(C)C)CC1)cn2C [Example 37, (R)-3-cyano-N-(3-(1-(2,3-dimethylbutanoyl)piperidin-4-yl)-1,4-dimethyl-1H-pyrrolo[2,3-b]pyridin-5-yl)benzamide]
4.5	Cc1c(NC(=O)c2cc(Cl)ccc2F)cnc2c1c(C1CCN(C(=O)[C@H](C)C(C)(C)C)CC1)cn2C [Example 41, (R)-5-chloro-N-(1,4-dimethyl-3-(1-(2,3,3-trimethylbutanoyl)piperidin-4-yl)-1H-pyrrolo[2,3-b]pyridin-5-yl)-2-fluorobenzamide]
7.5	Cc1c(NC(=O)c2cccc(C#N)c2)cnc2c1c(C1CCN(C(=O)[C@H](C)C34CC(C3)C4)CC1)cn2C [Example 50, (R)—N-(3-(1-(2-(bicyclo[1.1.1]pentan-1-yl)propanoyl)piperidin-4-yl)-1,4-dimethyl-1H-pyrrolo[2,3-b]pyridin-5-yl)-3-cyanobenzamide]
6.9	Cc1c(NC(=O)c2cccc(C#N)c2)cnc2c1c(C1CCN(C(=O)[C@H](C)C3CCCC3)CC1)cn2C [Example 51, (R)-3-cyano-N-(3-(1-(2-cyclopentylpropanoyl)piperidin-4-yl)-1,4-dimethyl-1H-pyrrolo[2,3-b]pyridin-5-yl)benzamide]

SMILES	IC50 [nM]
Cn1cc(C2CCN(C(=O)CC3CCC3)CC2)c2c(C(F)(F)F)c(NC(=O)c3cccc(C#N)c3)cnc21 [Example 18, 3-cyano-N-(3-(1-(2-cyclobutylacetyl)piperidin-4-yl)-1-methyl-4-(trifluoromethyl)-1H-pyrrolo[2,3-b]pyridin-5-yl)benzamide]	3.8
COc1cc(Cl)cc(C(=O)Nc2cnc3c(c(C4CCN(C(=O)[C@H](C)C(C)(C)C)CC4)cn3C)c2C)c1 [Example 42, (R)-3-chloro-N-(1,4-dimethyl-3-(1-(2,3,3-trimethylbutanoyl)piperidin-4-yl)-1H-pyrrolo[2,3-b]pyridin-5-yl)-5-methoxybenzamide]	7.6
